Here are results for 24 compounds from patent publication US20160176880A1, “SUBSTITUTED IMIDAZO[1,2-A]PYRAZINECARBOXAMIDES AND USE THEREOF” (BAYER PHARMA AKTIENGESELLSCHAFT, priority 2013, published 2016).

This test addresses T1, recombinant guanylate cyclase reporter cell line (Rattus norvegicus, UniProt P19686+P20595).
T1 construct: expressed in transfected cells
T1 sequence (P19686 1-690): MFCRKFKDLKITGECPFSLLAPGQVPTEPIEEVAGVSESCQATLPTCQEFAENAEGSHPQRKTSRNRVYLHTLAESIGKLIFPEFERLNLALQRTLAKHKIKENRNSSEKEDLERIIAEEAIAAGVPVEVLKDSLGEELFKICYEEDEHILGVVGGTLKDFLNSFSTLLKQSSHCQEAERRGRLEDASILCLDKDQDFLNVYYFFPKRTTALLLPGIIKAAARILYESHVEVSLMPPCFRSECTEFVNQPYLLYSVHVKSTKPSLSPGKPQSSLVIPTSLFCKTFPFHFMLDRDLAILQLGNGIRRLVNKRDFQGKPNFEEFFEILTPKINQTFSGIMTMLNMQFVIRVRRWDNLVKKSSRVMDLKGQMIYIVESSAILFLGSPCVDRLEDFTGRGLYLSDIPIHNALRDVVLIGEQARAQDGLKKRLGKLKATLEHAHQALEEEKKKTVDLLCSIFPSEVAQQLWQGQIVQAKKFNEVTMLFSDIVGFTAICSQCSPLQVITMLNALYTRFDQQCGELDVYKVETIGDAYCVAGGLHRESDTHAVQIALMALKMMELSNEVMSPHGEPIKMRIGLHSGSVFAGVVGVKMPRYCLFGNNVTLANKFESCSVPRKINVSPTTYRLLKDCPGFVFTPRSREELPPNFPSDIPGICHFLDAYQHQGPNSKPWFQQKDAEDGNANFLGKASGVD
T1 sequence (P20595 1-619): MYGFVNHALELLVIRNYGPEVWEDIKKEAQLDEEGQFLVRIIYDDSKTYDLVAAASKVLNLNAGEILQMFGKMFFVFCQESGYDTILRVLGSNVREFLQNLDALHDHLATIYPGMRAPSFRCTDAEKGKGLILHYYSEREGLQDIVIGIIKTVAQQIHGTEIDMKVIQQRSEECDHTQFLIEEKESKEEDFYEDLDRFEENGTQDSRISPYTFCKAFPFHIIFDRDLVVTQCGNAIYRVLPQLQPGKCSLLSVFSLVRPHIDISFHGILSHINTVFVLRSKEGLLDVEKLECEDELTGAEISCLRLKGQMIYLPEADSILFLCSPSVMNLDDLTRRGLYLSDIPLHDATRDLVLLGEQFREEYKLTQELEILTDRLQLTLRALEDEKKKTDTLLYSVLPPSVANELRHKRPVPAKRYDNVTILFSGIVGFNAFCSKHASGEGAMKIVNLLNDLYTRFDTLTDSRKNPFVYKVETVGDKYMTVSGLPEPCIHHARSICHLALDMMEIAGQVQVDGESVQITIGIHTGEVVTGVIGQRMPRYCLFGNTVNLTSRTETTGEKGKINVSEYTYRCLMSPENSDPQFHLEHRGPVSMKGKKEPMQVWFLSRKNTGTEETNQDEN
The test is described as follows: Effect on a recombinant guanylate cyclase reporter cell line. It is filed as cell-based. The conditions noted are these: MEC = minimum effective concentration; in some cases mean values for individual determinations. On the procedure: B-2. Effect on a Recombinant Guanylate Cyclase Reporter Cell Line
The cellular action of the compounds of the invention is determined using a recombinant guanylate cyclase reporter cell line, as described in F. Wunder et al., Anal. Biochem. 339, 104-112 (2005).
Representative MEC values (MEC=minimum effective concentration) for the compounds of the invention are shown in the table below (in some cases as mean values for individual determinations): […]

Counter-ions that a name gives are not always drawn.

For the compound `Cc1cn2c(C(=O)NCCN(C)C)c(C)nc2c(OCc2c(F)cccc2F)n1` [Example 19, 8-[(2,6-difluorobenzyl)oxy]-N-[2-(dimethylamino)ethyl]-2,6-dimethylimidazo[1,2-a]pyrazine-3-carboxamide], the MEC is 3 µM.
As for `Cc1cn2c(C(=O)Nc3c(C)nn(Cc4ccc(F)cc4)c3C)c(C)nc2c(OCc2c(F)cccc2F)n1` [Example 23, 8-[(2,6-difluorobenzyl)oxy]-N-[1-(4-fluorobenzyl)-3,5-dimethyl-1H-pyrazol-4-yl]-2,6-dimethylimidazo[1,2-a]pyrazine-3-carboxamide], the MEC was determined as 1 µM.
With `Cc1cn2c(C(=O)NCCN(CC(F)F)C3CC3)c(C)nc2c(OCc2c(F)cccc2F)n1` [Example 33, N-{2-[cyclopropyl(2,2-difluoroethyl)amino]ethyl}-8-[(2,6-difluorobenzyl)oxy]-2,6-dimethylimidazo[1,2-a]pyrazine-3-carboxamide], the MEC was 3 µM.
Take `Cc1cn2c(C(=O)N[C@H]3CCOC3=O)c(C)nc2c(OCc2c(F)cccc2F)n1` [Example 34, 8-[(2,6-difluorobenzyl)oxy]-2,6-dimethyl-N-[(3S)-2-oxotetrahydrofuran-3-yl]imidazo[1,2-a]pyrazine-3-carboxamide]: the MEC is 3 µM.
For the compound `Cc1cn2c(C(=O)Nc3c(C(F)(F)F)n[nH]c3C)c(C)nc2c(OCc2c(F)cccc2F)n1` [Example 27, 8-[(2,6-difluorobenzyl)oxy]-2,6-dimethyl-N-[5-methyl-3-(trifluoromethyl)-1H-pyrazol-4-yl]imidazo[1,2-a]pyrazine-3-carboxamide], the MEC worked out at 1 µM.
Regarding `Cc1cn2c(C(=O)NOCCO)c(C)nc2c(OCc2c(F)cccc2F)n1` [Example 44, 8-[(2,6-Difluorobenzyl)oxy]-N-(2-hydroxyethoxy)-2,6-dimethylimidazo[1,2-a]pyrazine-3-carboxamide], the MEC was 10 µM.
As for `Cc1cn2c(C(=O)NCCC3(O)CCCC3)c(C)nc2c(OCc2c(F)cccc2F)n1` [Example 12, 8-[(2,6-Difluorobenzyl)oxy]-N-[2-(1-hydroxycyclopentyl)ethyl]-2,6-dimethylimidazo[1,2-a]pyrazine-3-carboxamide], the MEC stood at 1 µM.
The result for `Cc1cn2c(C(=O)NCC3CCC(C#N)CC3)c(C)nc2c(OCc2c(F)cccc2F)n1` (mixture of isomers) [Example 50, N-[(4-cyanocyclohexyl)methyl]-8-[(2,6-difluorobenzyl)oxy]-2,6-dimethylimidazo[1,2-a]pyrazine-3-carboxamide trifluoroacetate (cis/trans mixture)] reads 1.0 µM; that for `Cc1nc2c(OCC3CCCCC3)nccn2c1C(=O)NCc1ccc(F)c(F)c1` [Example 47, 8-(Cyclohexylmethoxy)-N-(3,4-difluorobenzyl)-2-methylimidazo[1,2-a]pyrazine-3-carboxamide], 1.0 µM.
Turning to `Cc1cn2c(C(=O)NC(CCC(F)(F)C(F)(F)F)C(C)(C)O)c(C)nc2c(OCc2c(F)cccc2F)n1` (single isomer, unassigned; ent-8) [Example 29, ent-8-[(2,6-difluorobenzyl)oxy]-2,6-dimethyl-N-(6,6,7,7,7-pentafluoro-2-hydroxy-2-methylheptan-3-yl)imidazo[1,2-a]pyrazine-3-carboxamide], the MEC was found to be 1 µM.
For the compound `Cc1nc2c(OCC3CCC3)nccn2c1C(=O)NCc1ccc(F)c(F)c1` [Example 48, 8-(Cyclobutylmethoxy)-N-(3,4-difluorobenzyl)-2-methylimidazo[1,2-a]pyrazine-3-carboxamide], the MEC stood at 3.0 µM.
As to `Cc1cn2c(C(=O)NCC(C)(N)CCCF)c(C)nc2c(OCc2c(F)cccc2F)n1` (single isomer, unassigned; enantiomer b) [Example 40, ent-N-(2-Amino-5-fluoro-2-methylpentyl)-8-[(2,6-difluorobenzyl)oxy]-2,6-dimethylimidazo[1,2-a]pyrazine-3-carboxamide (enantiomer B)], the MEC came out at 0.3 µM.
In the case of `C=CCONC(=O)c1c(C)nc2c(OCc3c(F)cccc3F)nc(C)cn12` [Example 51, N-(allyloxy)-8-[(2,6-difluorobenzyl)oxy]-2,6-dimethylimidazo[1,2-a]pyrazine-3-carboxamide trifluoroacetate], the MEC was determined as 3.0 µM.
As for `Cc1cn2c(C(=O)NCC(C)(N)CC(C)C)c(C)nc2c(OCc2c(F)cccc2F)n1` (racemic) [Example 5, rac-N-(2-Amino-2,4-dimethylpentyl)-8-[(2,6-difluorobenzyl)oxy]-2,6-dimethylimidazo[1,2-a]pyrazine-3-carboxamide], the MEC was 1 µM.
As for `Cc1cn2c(C(=O)NC3c4ccccc4CC3O)c(C)nc2c(OCc2c(F)cccc2F)n1` (stereo not drawn) [Example 13, 8-[(2,6-difluorobenzyl)oxy]-N-(2-hydroxy-2,3-dihydro-1H-inden-1-yl)-2,6-dimethylimidazo[1,2-a]pyrazine-3-carboxamide], the MEC is 3 µM.
For the compound `Cc1cn2c(C(=O)NC(C)C#N)c(C)nc2c(OCc2c(F)cccc2F)n1` (racemic) [Example 14, rac-N-(1-cyanoethyl)-8-[(2,6-difluorobenzyl)oxy]-2,6-dimethylimidazo[1,2-a]pyrazine-3-carboxamide], the MEC amounted to 3 µM.
On to `Cc1cn2c(C(=O)Nc3cnn(CC(F)(F)F)c3)c(C)nc2c(OCc2c(F)cccc2F)n1` [Example 24, 8-[(2,6-difluorobenzyl)oxy]-2,6-dimethyl-N-[1-(2,2,2-trifluoroethyl)-1H-pyrazol-4-yl]imidazo[1,2-a]pyrazine-3-carboxamide], for which the MEC amounted to 3 µM.
For the compound `Cc1cn2c(C(=O)NC3CC3c3ccccc3)c(C)nc2c(OCc2c(F)cccc2F)n1` (racemic) [Example 17, rac-8-[(2,6-difluorobenzyl)oxy]-2,6-dimethyl-N-(2-phenylcyclopropyl)imidazo[1,2-a]pyrazine-3-carboxamide], the MEC amounted to 10 µM.
Take `Cc1cn2c(C(=O)NCCCCCC#N)c(C)nc2c(OCc2c(F)cccc2F)n1` [Example 49, N-(5-Cyanopentyl)-8-[(2,6-difluorobenzyl)oxy]-2,6-dimethylimidazo[1,2-a]pyrazine-3-carboxamide]: the MEC was determined as 1.0 µM.
For `Cc1cn2c(C(=O)NC3CC4CCCC(C3)N4C)c(C)nc2c(OCc2c(F)cccc2F)n1` (stereo not drawn) [Example 36, 8-[(2,6-difluorobenzyl)oxy]-2,6-dimethyl-N-(9-methyl-9-azabicyclo[3.3.1]non-3-yl)imidazo[1,2-a]pyrazine-3-carboxamide], the MEC came to 1 µM.
On to `Cc1cn2c(C(=O)NN3CCOCC3)c(C)nc2c(OCc2c(F)cccc2F)n1` [Example 45, 8-[(2,6-difluorobenzyl)oxy]-2,6-dimethyl-N-(morpholin-4-yl)imidazo[1,2-a]pyrazine-3-carboxamide], for which the MEC is 10 µM.
The value for `Cc1cn2c(C(=O)NC(C)COCC(F)(F)F)c(C)nc2c(OCc2c(F)cccc2F)n1` (racemic) [Example 31, rac-8-[(2,6-difluorobenzyl)oxy]-2,6-dimethyl-N-[1-(2,2,2-trifluoroethoxy)propan-2-yl]imidazo[1,2-a]pyrazine-3-carboxamide] was 3 µM; that for `Cc1cn2c(C(=O)NNc3ccc(F)cc3)c(C)nc2c(OCc2c(F)cccc2F)n1` [Example 52, 8-[(2,6-difluorobenzyl)oxy]-N′-(4-fluorophenyl)-2,6-dimethylimidazo[1,2-a]pyrazine-3-carbohydrazide] was 0.3 µM; that for `Cc1cn2c(C(=O)NC(C)c3nc(C(F)(F)F)no3)c(C)nc2c(OCc2c(F)cccc2F)n1` (racemic) [Example 26, rac-8-[(2,6-difluorobenzyl)oxy]-2,6-dimethyl-N-{1-[3-(trifluoromethyl)-1,2,4-oxadiazol-5-yl]ethyl}imidazo[1,2-a]pyrazine-3-carboxamide] was 3 µM.
